From patent US12053465B2, “KCC2 expression enhancing compounds and uses thereof” (Whitehead Institute for Biomedical Research, priority 2017, dated 2024)

Experiments:
KCC2 expression [1] = assay: Western blot of KCC2 in cultured human RTT neurons; type: cell-based
Description: Protein samples were collected from cultured brain slices or cultured neurons in 12-well format with RIPA lysis buffer (in mM: 150 NaCl, 25 Tris-HCl, 1 EDTA, 1% NP-40, 1% sodium deoxycholate, 0.1% SDS, with protein kinase inhibitor and protease inhibitor, pH adjusted to 7.6). A sonication step was applied to homogenize tissue and extract protein, followed by a 10 minute centrifugation at 4° C. […] The PVDF membrane was blocked for 30 minutes with 5% milk in TBS+0.1% Tween 20 (TBST), and incubated overnight at 4° C. with primary antibodies diluted in TBST-milk at the following concentrations: KCC2 (1:2000, Millipore), NKCC1 (1:1000, Iowa Hybridoma bank), α-Tubulin (1:4000, Abcam), GAPDH (1:3000, Abcam), Actin (1:2000, Sigma Aldrich #A2066). The membrane was rinsed with TBST three times to wash off excess antibodies, and then incubated in secondary HRP antibodies in TBST-milk at 1:5000 concentration.
The PVDF membrane was then stripped using the Re-blot plus strong solution (Millipore), and re-immunoblotted for NKCC1 (˜150 kDa) to acquire KCC2/NKCC1 ratio. The area and intensity of protein signal was determined using ImageJ. The relative KCC2 and NKCC1 expression were calculated by normalizing protein signal to GAPDH or Tubulin loading control.

KCC2 expression [2] = assay: Western blot of KCC2 in cultured WT human neurons; type: cell-based; details: cultured WT human neurons (WIBR1); Western blot
KCC2 expression [3] = assay: Western blot of KCC2 in organotypic mouse brain slices; type: cell-based; details: organotypic neonatal mouse brain slices, treated 7 days, vs DMSO, MeBIO or medium-only control
KCC2 mRNA = assay: Quantitative RT-PCR of KCC2 mRNA in organotypic mouse brain slices; type: cell-based
Description: (§1) Brain slices were also treated with the FLT3 inhibitors Crenolanib and XL-184. […] To assess whether increased KCC2 protein levels were due to increased gene transcription or enhanced protein stability, quantitative RT-PCR experiments were performed to measure the KCC2 mRNA level in KEEC-treated brain slices. […] In contrast, the expression of NKCC1, a chloride transporter that antagonizes KCC2 activity by shuttling Cl^− into the cell (44), was decreased by treatment with KEEC compounds (FIG. 8F).
(§2) Brain slice cultures were prepared from P1 neonatal mouse according to a protocol described by Antonio del Rio et al., Nature Protocols, 2010. Cerebrum slices (1 mm in thickness) were prepared from neonatal mouse brain, and were transferred to 6-well culture inserts with the pore size of 0.4 μm. The insert was placed in 6-well plates with 1 ml of culture medium. Three days after the initial culture, compounds and DMSO control were added to the medium. Alternately, in some experiments, brain slice cultures were prepared from P3 neonatal mouse according to a protocol described by Antonio del Rio et al., Nature Protocols, 2010. Cerebrum slices (1 mm in thickness) were prepared from neonatal mouse brain, and were transferred to 6-well culture inserts with the pore size of 0.4 μm. The insert was placed in 6-well plates with 1 ml of culture medium. The day after the initial culture, compounds and DMSO control were added to the medium. The medium with fresh compounds was used to replace old medium every other day. One week after drug treatment, the brain slices were harvested for Western blot or qRT-PCR analysis.
(§3) To prepare RNA samples from cultured organotypic brain slice, tissue samples were homogenized by passing through a 23 gauge needle for a number of times. Total RNA was extracted with Omega Total RNA kit and was reverse-transcribed into cDNA using the Invitrogen Superscript RT system and Oligo dT primer. SYBR green-based quantitative RT-PCR assay was performed to detect for the abundance of specific mRNA transcripts. The primer sequence for the detection of KCC2 expression in mouse brain samples are as follows: KCC2-Forward: […] (SEQ ID NO: 2); KCC2-Reverse: […] (SEQ ID NO: 3). The primer sequence for detection of NKCC1 mRNA are as follows: NKCC1-Forward: […] (SEQ ID NO: 3); NKCC1-Reverse: […] (SEQ ID NO: 4). The gene expression was calculated by normalizing the KCC2 data with the expression of housekeeping gene HDAC2 in every sample. HDAC2 expression was detected using the following primers: HDAC2-Forward: […] (SEQ ID NO: 5); HDAC2-Reverse: […] (SEQ ID NO: 6). Relative gene expression levels were calculated by normalizing KCC2 or NKCC1 expression in drug-treated groups with that in DMSO controls with the housekeeping gene HDAC being used as internal control.

NKCC1 mRNA = assay: Quantitative RT-PCR of NKCC1 mRNA in organotypic mouse brain slices; type: cell-based
Description: as §1, §2, §3

[4] = tested on: KCC2 expression (KCC2-2A-luciferase reporter); assay: KCC2-2A-luciferase reporter compound screening with RTT KCC2 reporter neurons; type: cell-based, human; details: for B Score: MECP2-null RTT human KCC2 reporter neurons, LINCS, SMART, ICCB libraries, Luc/CTG normalized to in-plate DMSO, hit = B score >3
Description: The RTT KCC2-2A-luciferase reporter neurons were treated with the test compounds from the LINCS kinase inhibitor library and IRSF SMART compound library and incubated before being lysed. The cell lysate was divided into two parts to measure luciferase signal (KCC2 translation) and Cell-Titer Glow (CTG, amount of ATP). The luciferase signal was normalized to CTG for each well, and the Luc/CTG ratio was normalized to the in-plate DMSO negative control to calculate fold change ratio.
Additional screens for reporter activation in the MECP2-null RTT human KCC2 reporter neurons (isogenic to the WT reporter cells used above) were performed with the LINCS and SMART libraries as well as the ICCB known bioactive library and identified hits as compounds with B score >3.
The cells were dissociated with Accutase and resuspended in 10 ml neuronal differentiation medium to count cells. The cells were then diluted to the final density of 200,000 to 500,000 cells/ml. Matrigel was added to the cell suspension at a dilution ratio of 1:300 to promote cell adhesion after plating. AraC was added to cell suspension at the concentration of 2 μM to inhibit cell division. The cells were plated into 96-well plates with an automated cell seeding machine using the following protocol: The neuron flask was washed with PBS. The neurons were digested off the plate with Accutase for 30 minutes at 37° C. Next, the dissociated cells were collected and spun down at 750 rpm for 5 minutes. The cell pellet was dissociated by gentle trituration with P1000 pipet and the cells were resuspended with 10 ml of neuronal medium. Then, the cells were filtered through a 40 μm cell strainer (Falcon) to get rid of clumps. The resulting single-cell suspension was counted using a Countess automated cell counter (Invitrogen Countess Automated Cell Counter, Catalog no. C10227). The neurons were resuspended with neuronal medium to 10× of the destination density (100,000 cells to 400,000 cells per ml). The cells were plated with a multichannel pipette, or proceeded to the machine-plating protocol described below:
The day after cell seeding, small molecule compounds from the IRSF (International Rett Syndrome Foundation) library were prepared at a concentration of 1 mM and dispensed into a blank V-bottomed test plates at 2 μl per well. Compound solvent DMSO was included in every plate as control. Using a liquid handling robot, about 80 μl of culture medium were discarded. Neuronal medium in the volume of 200 μl was added to the V-bottom test plate that contained 2 μl of 1 mM compounds, and mixed with compounds by pipetting up-and-down 3 times. The medium that contained the 10 μM compounds was then applied to the neuronal cell culture and incubated for 2 weeks before cell lysis and luciferase assay were performed.
The cells were dissociated with Accutase, resuspended in 10 ml neuronal differentiation medium to count cells. the final cell seeding density was 20 k-40 k cells per well for 96-well plates, and ˜10 k cells per well for 384-well plates. Matrigel was added to the cell suspension at a dilution ratio of 1:300 to promote cell adhesion after plating. AraC were added to the cell suspension at the concentration of 0.5 μM to inhibit astroglial cell division. The cells were dispensed into 96-well or 384-well plates (Coming) using a BioTek EL406 plate dispenser. […] The neurons were incubated with the compounds at 37° C./5% CO2 for a week before the luciferase assay.
The cells used for luciferase assay were KCC2 reporter neurons differentiated for 4 weeks, and treated with drug in 96-well format for 2 weeks. Cell density was between 20 k-40 k cells per well.
On the day of the luciferase assay, the cells were washed with PBS for two times, and 100 μl of cell lysis buffer was applied to the washed cells. The cell plates were transferred to a rocker to shake for 10 minutes in order to fully lyse the cells.

REST = assay: Western blot of REST in cultured human RTT neurons; type: cell-based
From the text: Two hit compounds Resveratrol and Piperine act on different pathways than the kinase inhibitors, activating the Sirtuin 1 (SIRT1) (49) and the transient receptor potential cation channel subfamily V member 1 (TRPV1) (50) signaling pathways, respectively.
Protein samples were collected from cultured brain slices or cultured neurons in 12-well format with RIPA lysis buffer (in mM: 150 NaCl, 25 Tris-HCl, 1 EDTA, 1% NP-40, 1% sodium deoxycholate, 0.1% SDS, with protein kinase inhibitor and protease inhibitor, pH adjusted to 7.6). A sonication step was applied to homogenize tissue and extract protein, followed by a 10 minute centrifugation at 4° C. The protein samples were mixed with NuPAGE LDS sample buffer, heated at 95° C. for 10 minutes, and then separated on NuPAGE 4-12% Bis-Tris gel and transferred to PVDF membrane. The PVDF membrane was blocked for 30 minutes with 5% milk in TBS+0.1% Tween 20 (TBST), and incubated overnight at 4° C. with primary antibodies diluted in TBST-milk at the following concentrations: KCC2 (1:2000, Millipore), NKCC1 (1:1000, Iowa Hybridoma bank), α-Tubulin (1:4000, Abcam), GAPDH (1:3000, Abcam), Actin (1:2000, Sigma Aldrich #A2066). The membrane was rinsed with TBST three times to wash off excess antibodies, and then incubated in secondary HRP antibodies in TBST-milk at 1:5000 concentration.

NRSF/REST = details: glioblastoma cell line; via SIRT1 pathway (49); cited from earlier work
immature mouse neurons = assay: Gramicidin-perforated patch recording of EGABA in DIV6-7 immature mouse neurons; type: cell-based
[5] = cultured human RTT neurons, Western blot
[6] = co-applied with EX-527 below the threshold for SIRT1 pathway inhibition
[7] = in the presence of a high concentration of SIRT1 pathway blocker EX-527, vs DMSO control

Row | Structure (SMILES) | KCC2 expression (KCC2 expression [1]; [5]) | KCC2 expression (KCC2 expression [2]) | KCC2 protein level (KCC2 expression [3]) | KCC2 mRNA level (KCC2 mRNA) | NKCC1 mRNA level (NKCC1 mRNA) | B Score [4] | KCC2 reporter activity in RTT neurons ([4]; RTT KCC2-2A-luciferase reporter neurons vs in-plate DMSO) | KCC2 expression (KCC2 expression [1]; [6]) | concentration at which treatment significantly increases KCC2 expression (KCC2 expression [1]; cultured ESC-derived human RTT neurons, Western blot) [µM] | KCC2 expression (KCC2 expression [1]; [7]) | level of REST (REST; [6]) | REST expression (REST; [7]) | expression of NRSF/REST (NRSF/REST) | EGABA after treatment (immature mouse neurons; DIV6-7 immature mouse neurons, untreated about −50 mV) | significant hyperpolarizing shift in EGABA (immature mouse neurons; DIV6 cultured immature mouse neurons)
1 | CC1(COc2ccc3c(c2)ncn3-c2ccc3cccc(N4CCC(N)CC4)c3n2)COC1 [Crenolanib, 1-(2-{5-[(3-Methyloxetan-3-yl)methoxy]-1H-benzimidazol-1-yl}quinolin-8-yl)piperidin-4-amine] | significant enhancement of KCC2 expression | significant enhancement of KCC2 expression | significantly increased the KCC2 protein level | significantly increased KCC2 expression | significant reduction in NKCC1 mRNA level | – | – | – | – | – | – | – | – | – | –
2 | O=C1Nc2ccccc2/C1=C1/Nc2ccccc2/C1=N\O [Indirubin-monoxime, (2Z,3E)-3-(hydroxyimino)-[2,3′-biindolinylidene]-2′-one] | increased KCC2 expression levels significantly | – | – | significantly increased KCC2 expression | significant reduction in NKCC1 mRNA level | – | – | – | – | – | – | – | – | – | –
3 | Oc1ccc(/C=C/c2cc(O)cc(O)c2)cc1 [Resveratrol, 3,5,4'-trihydroxy-trans-stilbene] | increase KCC2 expression | – | – | – | – | 12.65 | significant increase of KCC2 reporter activity | substantial increase in KCC2 expression | 10 | neither KCC2 nor REST was changed | reduction in the level of REST | neither KCC2 nor REST was changed | reduces expression of the neuronal gene repressor NRSF/REST | – | –
4 | CCN(CC)CCNC(=O)c1c(C)[nH]c(/C=C2\C(=O)Nc3ccc(F)cc32)c1C [Sunitinib, N-(2-diethylaminoethyl)-5-[(Z)-(5-fluoro-2-oxo-1H-indol-3-ylidene)methyl]-2,4-dimethyl-1H-pyrrole-3-carboxamide] | – | significant enhancement of KCC2 expression | – | significantly increased KCC2 expression | significant reduction in NKCC1 mRNA level | – | – | – | – | – | – | – | – | – | –
5 | COc1cc2nccc(Oc3ccc(NC(=O)C4(C(=O)Nc5ccc(F)cc5)CC4)cc3)c2cc1OC [XL-184, N′-[4-[(6,7-dimethoxy-4-quinolinyl)oxy]phenyl]-N-(4-fluorophenyl)-1,1-cyclopropanedicarboxamide] | significant enhancement of KCC2 expression | significant enhancement of KCC2 expression | significantly increased the KCC2 protein level | significantly increased KCC2 expression | significant reduction in NKCC1 mRNA level | 3.25 | – | – | – | – | – | – | – | about −70 mV | induces significant hyperpolarizing shift in EGABA
